Experimental data reported in ChEMBL document CHEMBL1201862, “PubChem BioAssay data set” (2004).
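Results reflect a 48-hour exposure of cells in 96-well plates to compound at five concentrations. Here, GI50 denotes the concentration required for 50% inhibition of growth.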 The source made the active and inactive calls. Rule as the data show it: active = GI50 up to about 1.1 µM and inactive = higher.

Legend:
Assay in all cases: NCI anticancer screen, dose series, 48 h
A498 = system: A498
COLO 205 = system: COLO 205
HCT-15 = system: HCT-15
HOP-62 = system: HOP-62
LOX IMVI = system: LOX IMVI
MCF7 = system: MCF7
MDA-MB-231 = system: MDA-MB-231
MDA-MB-435 = system: MDA-MB-435
MDA-N = system: MDA-N
Malme-3M = system: Malme-3M
NCI/ADR-RES = system: NCI/ADR-RES
OVCAR-4 = system: OVCAR-4
PC-3 = system: PC-3
SF-539 = system: SF-539
SK-MEL-28 = system: SK-MEL-28
SNB-75 = system: SNB-75
UO-31 = system: UO-31
SK-MEL-2 = system: SK-MEL-2
SK-OV-3 = system: SK-OV-3
UACC-62 = system: UACC-62

| Structure (SMILES) | GI50 (A498) | GI50 (COLO 205) | GI50 (HCT-15) [µM] | GI50 (HOP-62) | GI50 (LOX IMVI) | GI50 (MCF7) | GI50 (MDA-MB-231) | GI50 (MDA-MB-435) | GI50 (MDA-N) | GI50 (Malme-3M) | GI50 (NCI/ADR-RES) | GI50 (OVCAR-4) | GI50 (PC-3) | GI50 (SF-539) | GI50 (SK-MEL-28) | GI50 (SNB-75) | GI50 (UO-31) | GI50 (SK-MEL-2) | GI50 (SK-OV-3) | GI50 (UACC-62) |
| --- | --- | --- | --- | --- | --- | --- | --- | --- | --- | --- | --- | --- | --- | --- | --- | --- | --- | --- | --- | --- |
| O=C(NCc1ccccc1Cl)c1c(O)c2ccccc2[nH]c1=O | 15.9 µM (inactive) | 39.8 µM (inactive) | 42.8 | 19.1 µM (inactive) | > 100 µM (inactive) | > 100 µM (inactive) | 18.6 µM (inactive) | 36 µM (inactive) | 79.1 µM (inactive) | > 100 µM (inactive) | 12.2 µM (inactive) | 8.53 µM (inactive) | 64.9 µM (inactive) | > 100 µM (inactive) | > 100 µM (inactive) | 21.6 µM (inactive) | 13.6 µM (inactive) | – | – | – |
| CC1(C)CC(C#Cc2ccccc2)CC(C)(C)N1O | – | 20.6 µM (inactive) | 14.9 | 16.4 µM (inactive) | 15.5 µM (inactive) | 16.5 µM (inactive) | 15.2 µM (inactive) | 21.6 µM (inactive) | 15.8 µM (inactive) | 16.8 µM (inactive) | 23.9 µM (inactive) | 43.4 µM (inactive) | 11.6 µM (inactive) | 20.6 µM (inactive) | 16.6 µM (inactive) | 16.9 µM (inactive) | 12.2 µM (inactive) | 20.7 µM (inactive) | 27.1 µM (inactive) | 17.2 µM (inactive) |
| COc1cc(C=C2C(C)=NN(c3cccc(Cl)c3)C23C(Cl)C(=O)N3c2nc3ccccc3s2)ccc1O (configuration not stated) | 17.9 µM (inactive) | – | 20.7 | 20.4 µM (inactive) | 18.1 µM (inactive) | 28.2 µM (inactive) | 4.08 µM (inactive) | 12.4 µM (inactive) | 16.3 µM (inactive) | – | 38.8 µM (inactive) | 28.5 µM (inactive) | 14.9 µM (inactive) | 35.4 µM (inactive) | 23.3 µM (inactive) | – | 20.7 µM (inactive) | 17.5 µM (inactive) | 26.3 µM (inactive) | – |
| Cc1c(/N=N/c2ccc(Cl)cc2)c(C)n(C2OC(CO)C(O)C(O)C2O)c(=S)c1C#N (configuration not stated) | – | 19.3 µM (inactive) | 23.8 | 18.1 µM (inactive) | 17.3 µM (inactive) | 28.6 µM (inactive) | 18.4 µM (inactive) | 20.2 µM (inactive) | 21.6 µM (inactive) | 22.5 µM (inactive) | 19 µM (inactive) | 16.5 µM (inactive) | 23.4 µM (inactive) | 20.4 µM (inactive) | 23.4 µM (inactive) | 28 µM (inactive) | 23.4 µM (inactive) | 14.7 µM (inactive) | 37.4 µM (inactive) | 3.25 µM (inactive) |
| CN1CCN(c2nc3c(c(=O)n(C)c(=O)n3C)n2C)CC1 | > 100 µM (inactive) | > 100 µM (inactive) | > 100 | > 100 µM (inactive) | > 100 µM (inactive) | > 100 µM (inactive) | > 100 µM (inactive) | > 100 µM (inactive) | > 100 µM (inactive) | > 100 µM (inactive) | > 100 µM (inactive) | > 100 µM (inactive) | > 100 µM (inactive) | – | > 100 µM (inactive) | > 100 µM (inactive) | > 100 µM (inactive) | > 100 µM (inactive) | > 100 µM (inactive) | > 100 µM (inactive) |
| Cc1ccc2c(c1)CC1(Cc3c(C)cccc3C1=O)C2=O (configuration not stated) | > 100 µM (inactive) | > 100 µM (inactive) | > 100 | 28.5 µM (inactive) | > 100 µM (inactive) | > 100 µM (inactive) | > 100 µM (inactive) | > 100 µM (inactive) | > 100 µM (inactive) | > 100 µM (inactive) | > 100 µM (inactive) | > 100 µM (inactive) | > 100 µM (inactive) | > 100 µM (inactive) | > 100 µM (inactive) | 36.7 µM (inactive) | > 100 µM (inactive) | – | 76.2 µM (inactive) | 44.7 µM (inactive) |
| CC(=O)OCC1OC(Nc2ccc3nc(C)n(-c4ccccc4)c(=O)c3c2)C(OC(C)=O)C(OC(C)=O)C1OC(C)=O (configuration not stated) | > 50 µM (inactive) | > 50 µM (inactive) | > 50 | > 50 µM (inactive) | 42.8 µM (inactive) | > 50 µM (inactive) | > 50 µM (inactive) | > 50 µM (inactive) | > 50 µM (inactive) | > 50 µM (inactive) | > 50 µM (inactive) | > 50 µM (inactive) | > 50 µM (inactive) | – | > 50 µM (inactive) | > 50 µM (inactive) | > 50 µM (inactive) | > 50 µM (inactive) | – | 41.3 µM (inactive) |
| COc1cc(C[C@H]2C(=O)OC[C@@H]2Cc2ccc(OC)c(OC)c2)cc(OC)c1 | – | 89.3 µM (inactive) | 53.3 | > 100 µM (inactive) | 18.5 µM (inactive) | 34.2 µM (inactive) | 93.3 µM (inactive) | 55.7 µM (inactive) | 58.5 µM (inactive) | 55.6 µM (inactive) | 32.1 µM (inactive) | 29.7 µM (inactive) | 33 µM (inactive) | > 100 µM (inactive) | 62.2 µM (inactive) | 40.6 µM (inactive) | 39.6 µM (inactive) | 78.5 µM (inactive) | > 100 µM (inactive) | 62.8 µM (inactive) |
| CCOC(=O)C1C2CCC1CC(=NNc1ccc([N+](=O)[O-])cc1[N+](=O)[O-])C2 (configuration not stated) | – | > 50 µM (inactive) | > 50 | > 50 µM (inactive) | > 50 µM (inactive) | > 50 µM (inactive) | > 50 µM (inactive) | > 50 µM (inactive) | > 50 µM (inactive) | > 50 µM (inactive) | 4.38 µM (inactive) | > 50 µM (inactive) | 39.6 µM (inactive) | > 50 µM (inactive) | > 50 µM (inactive) | 18 µM (inactive) | > 50 µM (inactive) | > 50 µM (inactive) | > 50 µM (inactive) | > 50 µM (inactive) |
| N#CC12C(=O)N3C(=NC(c4ccccc4)NC3c3ccccc3)C1(C#N)C(c1ccccc1)NC1=C2CCC1 (configuration not stated) | > 100 µM (inactive) | > 100 µM (inactive) | > 100 | > 100 µM (inactive) | > 100 µM (inactive) | > 100 µM (inactive) | > 100 µM (inactive) | > 100 µM (inactive) | > 100 µM (inactive) | > 100 µM (inactive) | > 100 µM (inactive) | > 100 µM (inactive) | > 100 µM (inactive) | – | > 100 µM (inactive) | > 100 µM (inactive) | > 100 µM (inactive) | > 100 µM (inactive) | > 100 µM (inactive) | > 100 µM (inactive) |
| OC1CN=C2c3ccccc3C(O)(c3ccc(Cl)cc3)N2C1 (configuration not stated) | – | 19.5 µM (inactive) | – | 55.5 µM (inactive) | 45.4 µM (inactive) | 48.2 µM (inactive) | 57.8 µM (inactive) | 65.8 µM (inactive) | 35.4 µM (inactive) | 31.7 µM (inactive) | > 100 µM (inactive) | > 100 µM (inactive) | 41.9 µM (inactive) | 32.2 µM (inactive) | 49.7 µM (inactive) | 19.8 µM (inactive) | 37.4 µM (inactive) | > 100 µM (inactive) | 69.5 µM (inactive) | 45.4 µM (inactive) |
| Cc1ccc(/C=N/Nc2nc3ccccc3s2)s1 | – | > 100 µM (inactive) | 19.4 | 26.2 µM (inactive) | > 100 µM (inactive) | 5.53 µM (inactive) | 24.7 µM (inactive) | > 100 µM (inactive) | > 100 µM (inactive) | > 100 µM (inactive) | > 100 µM (inactive) | 34.4 µM (inactive) | 27.9 µM (inactive) | 91.8 µM (inactive) | > 100 µM (inactive) | 46.3 µM (inactive) | 51.6 µM (inactive) | > 100 µM (inactive) | 58.7 µM (inactive) | 74.6 µM (inactive) |
| c1csc(-c2cc(-c3cccs3)c(-c3cccs3)s2)c1 | > 100 µM (inactive) | 40.6 µM (inactive) | 49.8 | > 100 µM (inactive) | – | 18.5 µM (inactive) | 56.1 µM (inactive) | 37.8 µM (inactive) | 32 µM (inactive) | 62.2 µM (inactive) | > 100 µM (inactive) | > 100 µM (inactive) | > 100 µM (inactive) | > 100 µM (inactive) | 57.4 µM (inactive) | 21.2 µM (inactive) | > 100 µM (inactive) | – | > 100 µM (inactive) | 54.2 µM (inactive) |
| COP(=O)(CC(=O)C1OC(OCc2ccccc2)C(OCc2ccccc2)C(OCc2ccccc2)C1OCc1ccccc1)OC (configuration not stated) | – | 3.78 µM (inactive) | 4.83 | 20.1 µM (inactive) | 11 µM (inactive) | 4.74 µM (inactive) | 10.2 µM (inactive) | 5.38 µM (inactive) | 4.27 µM (inactive) | 9.1 µM (inactive) | 4.16 µM (inactive) | 2.19 µM (inactive) | 5.01 µM (inactive) | 12.8 µM (inactive) | 54 µM (inactive) | 7.76 µM (inactive) | 2.94 µM (inactive) | 3.22 µM (inactive) | 27.8 µM (inactive) | 4.12 µM (inactive) |
| O=C1NC(N2CCCC(CO)C2)=N/C1=C\c1ccc(O)cc1 (configuration not stated) | – | > 100 µM (inactive) | > 100 | > 100 µM (inactive) | > 100 µM (inactive) | > 100 µM (inactive) | > 100 µM (inactive) | > 100 µM (inactive) | > 100 µM (inactive) | > 100 µM (inactive) | > 100 µM (inactive) | > 100 µM (inactive) | > 100 µM (inactive) | > 100 µM (inactive) | > 100 µM (inactive) | > 100 µM (inactive) | > 100 µM (inactive) | > 100 µM (inactive) | > 100 µM (inactive) | > 100 µM (inactive) |
